From patent US6426405B2, “Neurotransmitter transporter SC6” (SmithKline Beecham P.L.C., priority 1998, dated 2002)

Target: T1, SC6 (GlyT-2 transporter) (Homo sapiens, UniProt Q9Y345)
T1 sequence (Q9Y345 1-797 F124S/A162G/Q184R/D463N/I735T/V751A): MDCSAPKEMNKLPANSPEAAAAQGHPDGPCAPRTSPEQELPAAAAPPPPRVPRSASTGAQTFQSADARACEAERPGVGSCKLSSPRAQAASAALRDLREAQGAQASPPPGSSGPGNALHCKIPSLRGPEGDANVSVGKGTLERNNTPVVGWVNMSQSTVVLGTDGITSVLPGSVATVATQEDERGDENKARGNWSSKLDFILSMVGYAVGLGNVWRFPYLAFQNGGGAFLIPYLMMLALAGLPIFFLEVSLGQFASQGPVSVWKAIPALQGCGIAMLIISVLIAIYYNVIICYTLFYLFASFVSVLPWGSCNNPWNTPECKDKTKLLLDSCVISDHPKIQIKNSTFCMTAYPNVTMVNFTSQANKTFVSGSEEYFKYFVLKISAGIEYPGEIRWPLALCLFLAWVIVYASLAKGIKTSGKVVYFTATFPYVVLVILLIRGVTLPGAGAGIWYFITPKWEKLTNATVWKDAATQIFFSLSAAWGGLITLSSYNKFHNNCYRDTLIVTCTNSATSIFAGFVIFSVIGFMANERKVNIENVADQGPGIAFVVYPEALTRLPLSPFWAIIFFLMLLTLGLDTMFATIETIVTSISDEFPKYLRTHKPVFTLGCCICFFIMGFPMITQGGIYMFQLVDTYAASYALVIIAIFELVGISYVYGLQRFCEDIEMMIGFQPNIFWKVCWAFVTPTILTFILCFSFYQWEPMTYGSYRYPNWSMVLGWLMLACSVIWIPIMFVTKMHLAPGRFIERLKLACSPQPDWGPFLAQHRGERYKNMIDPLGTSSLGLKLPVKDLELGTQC
Assay: [3H]-glycine uptake assay in HEK-293 cells transiently transfected with SC6
Conditions: 1 mM test substance, 1 μM [3H]-glycine, alanine (5 mM) present, HEK-293 cells transfected with SC6, 37° C.

effect on [3H]-glycine uptake	SMILES
almost totally blocked	NCC(=O)O [glycine]
not significantly affected	CNCC(=O)O [sarcosine]
